# Assay results published in patent US6291449A, “Use of 11-phenyl-dibenzazepine compounds to treat diarrhea or scours” (Children's Medical Center Corporation, priority 1998, dated 2001).
# Like-named read-outs stand apart in the source and are kept apart here.
# Key:
# [1] = system: T84 cells; assay: Electrogenic Cl- secretion (short circuit current) in intact T84 monolayers; format: cell-based, human; parameters: inhibition of Cl- secretory response to carbachol (Isc): dose or concentration left out as unconfirmed; conditions: for inhibition of chloride secretion: T84 cells
# [2] = system: basolateral K+ channels; assay: K+ transport/conductance of basolateral membrane in apically permeabilized T84 monolayers; conditions: for increases in Isc and G in absence of K+: Na+ as sole permeant cation, 135 mM gradient; for effect on K+ transport (Isc and G): forskolin 10 μM, 135 mM K+ gradient; for duration of agonist-induced changes in Isc: permeabilized T84 monolayers; for activation of currents at positive transepithelial voltages: basolaterally directed K+ gradient
# [3] = system: rabbit colonic mucosa; assay: Ussing chamber studies using rabbit colonic mucosa; parameters: species or system rabbit (New Zealand)
# [4] = system: basolateral K+ channel; assay: 86Rb efflux from T84 monolayers (K+ channel activity); format: cell-based, human
# [5] = biological target: T1, basolateral NaK2Cl cotransporters (Homo sapiens, UniProt P55011); assay: 86Rb uptake in T84 monolayers (bumetanide-sensitive NaK2Cl cotransport); format: cell-based
# T1 sequence (P55011 1-1212): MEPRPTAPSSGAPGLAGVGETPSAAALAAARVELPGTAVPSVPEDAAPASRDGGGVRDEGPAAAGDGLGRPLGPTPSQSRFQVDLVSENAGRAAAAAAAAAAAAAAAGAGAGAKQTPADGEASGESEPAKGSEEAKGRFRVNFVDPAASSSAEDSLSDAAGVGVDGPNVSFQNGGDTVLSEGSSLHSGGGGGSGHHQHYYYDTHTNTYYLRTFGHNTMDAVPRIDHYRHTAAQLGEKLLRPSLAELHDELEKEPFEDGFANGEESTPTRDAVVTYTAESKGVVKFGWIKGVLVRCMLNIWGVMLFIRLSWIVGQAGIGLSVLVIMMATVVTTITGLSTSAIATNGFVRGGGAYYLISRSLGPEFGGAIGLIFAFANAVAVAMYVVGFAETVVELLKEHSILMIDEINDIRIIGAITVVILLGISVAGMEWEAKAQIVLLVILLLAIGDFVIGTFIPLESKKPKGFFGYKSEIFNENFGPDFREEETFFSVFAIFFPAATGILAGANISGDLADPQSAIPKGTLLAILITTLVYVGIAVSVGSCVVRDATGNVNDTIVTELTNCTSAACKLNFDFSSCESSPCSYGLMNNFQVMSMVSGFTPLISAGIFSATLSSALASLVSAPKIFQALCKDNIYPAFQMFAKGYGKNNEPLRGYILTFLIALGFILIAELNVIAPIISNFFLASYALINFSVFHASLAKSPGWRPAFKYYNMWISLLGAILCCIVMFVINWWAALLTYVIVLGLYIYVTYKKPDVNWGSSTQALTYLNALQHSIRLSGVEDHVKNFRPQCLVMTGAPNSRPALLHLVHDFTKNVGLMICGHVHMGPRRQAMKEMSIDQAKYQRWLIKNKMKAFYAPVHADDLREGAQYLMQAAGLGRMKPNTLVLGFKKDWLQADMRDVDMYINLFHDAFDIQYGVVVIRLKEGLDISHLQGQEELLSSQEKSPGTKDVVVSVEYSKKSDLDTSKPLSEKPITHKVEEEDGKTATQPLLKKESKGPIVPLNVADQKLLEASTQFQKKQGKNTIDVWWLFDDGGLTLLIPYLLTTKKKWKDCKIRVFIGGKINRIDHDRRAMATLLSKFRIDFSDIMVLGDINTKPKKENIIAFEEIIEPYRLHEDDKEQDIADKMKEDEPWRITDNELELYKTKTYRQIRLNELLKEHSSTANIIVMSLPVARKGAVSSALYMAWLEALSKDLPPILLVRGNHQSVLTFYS
# Experimental: A group of control and CLT treated (33 μM, for 30 min) monolayers were treated with bumetanide (10 μM for 12 min).
# [6] = system: apical membrane Cl- channels; assay: Cl- conductance of the apical plasma membrane in basolaterally permeabilized T84 monolayers; format: cell-based, human
# [7] = system: intestinal fluid secretion induced by cholera toxin; parameters: species or system mouse (Balb/C); conditions: mouse, in vivo
# [8] = system: apical membrane Cl- channels; assay: 125I efflux from T84 monolayers (apical Cl- channel activity)
# [9] = system: basolateral K+ channels
# [10] = carbachol (so in the source) stimulated, […]
# [11] = T84 cells, vs cells not treated with clotrimazole
# [12] = clotrimazole 33 μM, final 30 min of 90 min preincubation
compound,measurement,setting,value
OC(c1ccccc1)(c1ccccc1)c1ccccc1Cl [2-chlorophenyl-bis-phenyl methanol],inhibition of chloride secretion,[1],effective at inhibiting chloride secretion
same,inhibition of time course of K+ transport after carbachol,[2]; carbachol 100 μM (Ca++ agonist),Nearly identical results
same,inhibition of time course of K+ transport after forskolin,[2]; forskolin 10 μM (cAMP agonist),Nearly identical results
[Ba+2].[Cl-].[Cl-] [BaCl2],inhibition of Cl- secretory response to VIP (Isc),[1],strongly inhibited
same,inhibition of Cl- secretory response to carbachol (Isc),[1]; [10],no apparent affect
same,effect on K+ transport induced by carbachol,"[2]; carbachol 100 μM after forskolin, BaCl2 3 mM",no detectable effect
same,inhibition of cAMP-sensitive IK,"[2]; forskolin 10 μM elicited, BaCl2 3 mM basolateral",greater than 70%
C[C@@H]1[C@H](O)[C@@H](C)/C=C/C=C/C=C/C=C/C=C/C=C/C=C/[C@H](O[C@@H]2O[C@H](C)[C@@H](O)[C@H](N)[C@@H]2O)C[C@@H]2O[C@](O)(C[C@@H](O)C[C@@H](O)[C@H](O)CC[C@@H](O)C[C@@H](O)CC(=O)O[C@H]1C)C[C@H](O)[C@H]2C(=O)O [amphotericin B],increase in conductance on initial permeabilization,"[2]; amphotericin B, apical",49±19%
C[N+](C)(C)CCOC(N)=O [carbachol],effect on Isc after forskolin,[3]; carbachol 100 μM added after forskolin,no firther effect
same,increases in Isc and G in absence of K+,[2],not detectable
same,time to return of IscK and GK to baseline,[2]; after addition of carbachol,≤ 5 min
same,"carbachol-induced IscK, carbachol added after forskolin",[2]; after forskolin,180.7±15.7 μA/cm^2
same,"carbachol-induced IscK, carbachol added alone",[2]; carbachol alone,111.7±7.4 μA/cm^2
same,effect on K+ transport (Isc and G),[2],increased K+ currents
same,duration of agonist-induced changes in Isc,[2],short-lived
Clc1ccccc1C(c1ccccc1)(c1ccccc1)n1ccnc1 [clotrimazole],"apparent potency of inhibition, basolateral vs apical application",[1],greater when applied basolaterally than apically
same,inhibition by basolateral application alone compared with both sides,[1],almost as effective as incubation on both sides
same,inhibition of Cl- secretory response to VIP (Isc),[1],inhibited
same,inhibition of Cl- secretory response to carbachol (Isc),[1],inhibited
same,inhibition of Cl- secretory response to carbachol after pretreatment,[1],inhibited strongly
same,inhibition of Cl- secretory response to ionomycin after pretreatment,[1],inhibited strongly
same,inhibition of Cl- secretory response to thapsigargin after pretreatment,[1],inhibited strongly
same,inhibition of cAMP and Ca++ elicited Cl- secretion,[1],most potent inhibitor tested
same,inhibition of secretory response to 8Br-cAMP after pretreatment,[1],inhibited
same,inhibition of secretory response to VIP after pretreatment,[1],inhibited
same,inhibition of secretory response to forskolin after pretreatment,[1],inhibited
same,inhibition of synergistic response to VIP plus carbachol,[1],found to parallel the inhibition of secretion promoted by Ca^++ agonists alone
same,reversibility of inhibition of Cl- secretion,[1],96±2%
same,IC50,"[1]; Homo sapiens, T84, read-out: IC50, inhibition of secretory response to E. Coli heat-stabile toxin",15 µM
same,potentiation of Cl- secretory responses to either agonist,[1]; low doses (10^-7 or less),5-10%
same,inhibition of Ca++ stimulated 86Rb efflux,[4]; [11],significantly inhibited
same,inhibition of baseline 86Rb efflux,[4]; [11],significantly inhibited
same,reduction of rate constant for VIP-stimulated 86Rb efflux,"[4]; VIP 5 μM, clotrimazole 33 μM",87%
same,86Rb loading of the cells,[4]; [12],did not alter
same,rate constant for VIP-stimulated 86Rb efflux,"[4]; clotrimazole-treated (vs 0.0465 untreated), n=2 in triplicate",0.0062 % uptake/minute
same,rate constant for thapsigargin-stimulated 86Rb efflux,"[4]; clotrimazole-treated (vs 0.048 untreated), n=2",0.011 % uptake/minute
same,inhibition of 86Rb efflux stimulated with thapsigargin,[4]; compared with VIP-stimulated efflux,inhibited to a similar degree
same,inhibition at 33 µM,"[5]; 0.5 h, read-out: reduction of total amount of 86Rb uptake",53.6 ± 5.8%
same,effect on fractional component of 86Rb uptake that was bumetanide-sensitive,"[5]; clotrimazole 33 μM, bumetanide 10 μM",no effect
same,effect on forskolin-stimulated Cl- conductances,[6]; symmetrical Cl- 142 mM,no detectable effect
same,effect on thapsigargin-stimulated Cl- conductances,[6]; symmetrical Cl- 142 mM,no detectable effect
same,inhibition of time course of forskolin induced Isc,"[3]; clotrimazole 30 μM, forskolin 10 μM",inhibited strongly
same,effect on intestinal secretion in the absence of cholera toxin,[7],no effect
same,reduction of intestinal fluid secretion induced by cholera toxin,[7],86%
same,rate constant for 125I efflux,"[8]; VIP-stimulated, clotrimazole-treated monolayers, n=2 in duplicate",0.0637 % uptake/minute
same,125I loading of the cells,[8]; [12],did not alter
same,"effect on time course of 125I efflux, VIP",[8]; monolayers treated with VIP,little or no effect
same,inhibition of time course of K+ transport after carbachol,[2],significantly inhibited
same,inhibition of time course of K+ transport after forskolin,[2],significantly inhibited
Clc1ccc(COC(Cn2ccnc2)c2ccc(Cl)cc2Cl)cc1 (stereo not shown) [econazole],inhibition of chloride secretion,[1],effective at inhibiting chloride secretion
C=C[C@@]1(C)CC(=O)[C@]2(O)[C@@]3(C)[C@@H](O)CCC(C)(C)[C@@H]3[C@H](O)[C@H](OC(C)=O)[C@@]2(C)O1 [forskolin],effect on Cl- conductance over baseline,"[6]; forskolin 10 μM basolateral, no clotrimazole",increased Cl- conductances significantly over baseline
same,reversal potential (I/V relations),[9],-40 mV
same,increases in Isc and G in absence of K+,[2],not detectable
same,activation of currents at positive transepithelial voltages,[2],activate macroscopic outwardly rectified (mucosal to serosal) currents
same,effect on K+ transport (Isc and G),[2],brisk increase in K+ transport
same,duration of agonist-induced changes in Isc,[2],sustained
CC(=O)N1CCN(c2ccc(OCC3COC(Cn4ccnc4)(c4ccc(Cl)cc4Cl)O3)cc2)CC1 (stereo not shown) [ketoconazole],inhibition of chloride secretion,[1],effective at inhibiting chloride secretion
Clc1ccc(COC(Cn2ccnc2)c2ccc(Cl)cc2Cl)c(Cl)c1 (stereo not shown) [miconazole],inhibition of chloride secretion,[1],effective at inhibiting chloride secretion
C/C=C(/C)C(=O)O[C@H]1C(C)=C2[C@H]([C@@H]1OC(=O)CCCCCCC)[C@@](C)(OC(C)=O)C[C@H](OC(=O)CCC)[C@@]1(O)[C@H]2OC(=O)[C@@]1(C)O [thapsigargin],reversal potential (I/V relations),[9],-40 mV
same,activation of currents at positive transepithelial voltages,[2],activate macroscopic outwardly rectified (mucosal to serosal) currents
charybdotoxin,inhibition of Cl- secretory response to VIP (Isc),[1],minimal affects
same,inhibition of Cl- secretory response to carbachol (Isc),[1]; [10],strongly inhibited
same,effect on K+ transport induced by subsequent forskolin,[2]; charybdotoxin 100 nM,no detectable effect
same,inhibition of carbachol-induced Ca++ IK,[2]; charybdotoxin 100 nM pretreatment,50%
